# Laboratory results as given in US6737383B1, “Herbicidal oxadiazolidines” (priority 1999, dated 2004).
# Columns and labels:
# velvetleaf = assay: Test B pre/postemergence velvetleaf; assay type: in vivo, Abutilon theophrasti
# Method in brief: (§1)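 Response is a visual 0-to-10 score relative to untreated plants, where 0 means no effect and 10 means complete control, taken twelve to sixteen days after application. Treatments went onto soil at planting and onto foliage of 1- to 4-leaf plants, using a surfactant-containing non-phytotoxic solvent.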
# morningglory = assay: Test B pre/postemergence morningglory; assay type: in vivo, Ipomoea hederacea
# Method in brief: as §1
# sugar beet = assay: Test B pre/postemergence sugar beet; assay type: in vivo, Beta vulgaris
# Method in brief: as §1
# smallflower flatsedge = assay: Test B flood test smallflower flatsedge; assay type: in vivo, Cyperus difformis
# Method in brief: (§2)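 Each value is a visual injury score relative to controls, with 10 meaning complete control and 0 no effect. Evaluation took place twelve to sixteen days after the 2-leaf-stage plants were treated and kept in the greenhouse.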
# giant foxtail = assay: Test B pre/postemergence giant foxtail; assay type: in vivo, Setaria faberii
# Method in brief: as §1
# purple nutsedge = assay: Test B pre/postemergence purple nutsedge; assay type: in vivo, Cyperus rotundus
# Method in brief: as §1
# crabgrass = assay: Test B pre/postemergence crabgrass; assay type: in vivo, Digitaria sanguinalis
# Method in brief: as §1
# duck salad = assay: Test B flood test duck salad; assay type: in vivo, Heteranthera limosa
# Method in brief: as §2
# soybean = assay: Test B pre/postemergence soybean; assay type: in vivo, Glycine max
# Method in brief: as §1
# wild oat = assay: Test B pre/postemergence wild oat; assay type: in vivo, Avena fatua
# Method in brief: as §1
# bamyardgrass = assay: Test B flood test barnyardgrass; assay type: in vivo, Echinochloa crus-galli
# Method in brief: as §2
# blackgrass = assay: Test B pre/postemergence blackgrass; assay type: in vivo, Alopecurus myosuroides
# Method in brief: as §1
# corn = assay: Test B pre/postemergence corn; assay type: in vivo, Zea mays
# Method in brief: as §1
# pigweed = assay: Test B pre/postemergence pigweed; assay type: in vivo, Amaranthus retroflexus
# Method in brief: as §1
# bedstraw = assay: Test B pre/postemergence bedstraw; assay type: in vivo, Galium aparine; conditions: Postemergence
# Method in brief: as §1
# rape = assay: Test B pre/postemergence rape; assay type: in vivo, Brassica napus
# Method in brief: as §1
# rice = assay: Test B flood test rice; assay type: in vivo, Oryza sativa
# Method in brief: as §2
# cocklebur = assay: Test B pre/postemergence cocklebur; assay type: in vivo, Xanthium strumarium
# Method in brief: as §1
# wheat = assay: Test B pre/postemergence wheat; assay type: in vivo, Triticum aestivum
# Method in brief: as §1
# surinam grass = assay: Test B pre/postemergence surinam grass; assay type: in vivo, Brachiaria decumbens
# Method in brief: as §1
# [1] = Postemergence, Rate 62 g/ha, scale 0 to 10, 0 is no effect, 10 is complete control
# [2] = Postemergence, Rate 125 g/ha, scale of 0 to 10 where 0 is no effect and 10 is complete control
# [3] = Postemergence, Rate 250 g/ha, scale of 0 to 10, 0 is no effect, 10 is complete control
# [4] = Postemergence, Rate 500 g/ha, scale of 0 to 10 where 0 is no effect and 10 is complete control
# [5] = Preemergence, Rate 62 g/ha, scale 0 to 10 (0 no effect, 10 complete control)
# [6] = Preemergence, Rate 125 g/ha, scale of 0 to 10 where 0 is no effect and 10 is complete control
# [7] = Preemergence, Rate 500 g/ha, scale of 0 to 10 where 0 is no effect and 10 is complete control
# [8] = Rate 62 g/ha, flood test species, Pre-emergence, visual evaluation after twelve to sixteen days
# [9] = Rate 125 g/ha, under heading Pre-emergence, flood test species, visual evaluation after twelve to sixteen days
# [10] = Rate 250 g/ha, Pre-emergence (flood test species), scale 0 to 10, 0 is no effect, 10 is complete control
# [11] = Rate 500 g/ha, Pre-emergence section of Table B, 0 to 10 scale (0 no effect, 10 complete control)
compound,measurement,setting,value
CCC(C)n1c(=O)on(C(=O)N(c2ccc(F)cc2)C(C)C)c1=O (centres unmarked) [Compound 613],"Plant response rating, Velvetleaf",velvetleaf; [1],0
same,"Plant response rating, Velvetleaf",velvetleaf; [2],4
same,Velvetleaf plant response rating,velvetleaf; [3],5
same,"Plant response rating, Velvetleaf",velvetleaf; [4],8
same,Velvetleaf plant response rating,velvetleaf; [5],7
same,Velvetleaf plant response rating,velvetleaf; [6],7
same,"Plant response rating, Velvetleaf",velvetleaf; [7],8
same,"Plant response rating, Morningglory",morningglory; [1],7
same,"Plant response rating, Morningglory",morningglory; [2],7
same,Morningglory plant response rating,morningglory; [3],8
same,"Plant response rating, Morningglory",morningglory; [4],8
same,Morningglory plant response rating,morningglory; [5],0
same,Morningglory plant response rating,morningglory; [6],0
same,"Plant response rating, Morningglory",morningglory; [7],10
same,"Plant response rating, Sugarbeets",sugar beet; [1],0
same,"Plant response rating, Sugarbeets",sugar beet; [2],0
same,Sugarbeets plant response rating,sugar beet; [3],0
same,"Plant response rating, Sugarbeets",sugar beet; [4],0
same,Sugarbeets plant response rating,sugar beet; [5],3
same,Sugarbeets plant response rating,sugar beet; [6],5
same,"Plant response rating, Sugarbeets",sugar beet; [7],10
same,"Plant response rating, S. Flatsedge (0 to 10 scale, 0 is no effect, 10 is complete control)",smallflower flatsedge; [8],0
same,"S. Flatsedge plant response rating (0 to 10 scale, 0 is no effect, 10 is complete control)",smallflower flatsedge; [9],0
same,S. Flatsedge plant response rating,smallflower flatsedge; [10],0
same,S. Flatsedge plant response rating,smallflower flatsedge; [11],0
same,"Plant response rating, Giant foxtail",giant foxtail; [1],5
same,"Plant response rating, Giant foxtail",giant foxtail; [2],9
same,Giant foxtail plant response rating,giant foxtail; [3],9
same,"Plant response rating, Giant foxtail",giant foxtail; [4],9
same,Giant foxtail plant response rating,giant foxtail; [5],10
same,Giant foxtail plant response rating,giant foxtail; [6],10
same,"Plant response rating, Giant foxtail",giant foxtail; [7],10
same,"Plant response rating, Nutsedge",purple nutsedge; [1],0
same,"Plant response rating, Nutsedge",purple nutsedge; [2],2
same,Nutsedge plant response rating,purple nutsedge; [3],2
same,"Plant response rating, Nutsedge",purple nutsedge; [4],4
same,Nutsedge plant response rating,purple nutsedge; [5],0
same,Nutsedge plant response rating,purple nutsedge; [6],0
same,"Plant response rating, Nutsedge",purple nutsedge; [7],2
same,"Plant response rating, Crabgrass",crabgrass; [1],8
same,"Plant response rating, Crabgrass",crabgrass; [2],9
same,Crabgrass plant response rating,crabgrass; [3],9
same,"Plant response rating, Crabgrass",crabgrass; [4],9
same,Crabgrass plant response rating,crabgrass; [5],9
same,Crabgrass plant response rating,crabgrass; [6],10
same,"Plant response rating, Crabgrass",crabgrass; [7],10
same,"Plant response rating, Ducksalad (0 to 10 scale, 0 is no effect, 10 is complete control)",duck salad; [8],0
same,"Ducksalad plant response rating (0 to 10 scale, 0 is no effect, 10 is complete control)",duck salad; [9],0
same,Ducksalad plant response rating,duck salad; [10],0
same,Ducksalad plant response rating,duck salad; [11],0
same,"Plant response rating, Soybean",soybean; [1],4
same,"Plant response rating, Soybean",soybean; [2],5
same,Soybean plant response rating,soybean; [3],6
same,"Plant response rating, Soybean",soybean; [4],8
same,Soybean plant response rating,soybean; [5],0
same,Soybean plant response rating,soybean; [6],0
same,"Plant response rating, Soybean",soybean; [7],2
same,"Plant response rating, Wild oats",wild oat; [1],1
same,"Plant response rating, Wild oats",wild oat; [2],7
same,Wild oats plant response rating,wild oat; [3],9
same,"Plant response rating, Wild oats",wild oat; [4],9
same,Wild oats plant response rating,wild oat; [5],7
same,Wild oats plant response rating,wild oat; [6],9
same,"Plant response rating, Wild oats",wild oat; [7],10
same,"Plant response rating, Barnyardgrass (0 to 10 scale, 0 is no effect, 10 is complete control)",bamyardgrass; [8],0
same,"Barnyardgrass plant response rating (0 to 10 scale, 0 is no effect, 10 is complete control)",bamyardgrass; [9],0
same,Barnyardgrass plant response rating,bamyardgrass; [10],0
same,Barnyardgrass plant response rating,bamyardgrass; [11],0
same,"Plant response rating, Blackgrass",blackgrass; [1],8
same,"Plant response rating, Blackgrass",blackgrass; [2],9
same,Blackgrass plant response rating,blackgrass; [3],9
same,"Plant response rating, Blackgrass",blackgrass; [4],9
same,Blackgrass plant response rating,blackgrass; [5],8
same,Blackgrass plant response rating,blackgrass; [6],8
same,Blackgrass plant response rating (0 to 10 scale),"blackgrass; Preemergence, Rate 250 g/ha",10
same,Blackgrass plant response rating,blackgrass; [7],10
same,"Plant response rating, Corn",corn; [1],0
same,"Plant response rating, Corn",corn; [2],0
same,Corn plant response rating,corn; [3],0
same,"Plant response rating, Corn",corn; [4],0
same,Corn plant response rating,corn; [5],2
same,Corn plant response rating,corn; [6],3
same,Corn plant response rating (0 to 10 scale),"corn; Preemergence, Rate 250 g/ha",9
same,"Plant response rating, Corn",corn; [7],9
same,"Plant response rating, Redroot pigweed",pigweed; [1],1
same,"Plant response rating, Redroot pigweed",pigweed; [2],2
same,Redroot pigweed plant response rating,pigweed; [3],7
same,"Plant response rating, Redroot pigweed",pigweed; [4],8
same,Redroot pigweed plant response rating,pigweed; [5],10
same,Redroot pigweed plant response rating,pigweed; [6],10
same,"Plant response rating, Redroot pigweed",pigweed; [7],10
same,"Plant response rating, Bedstraw","bedstraw; Rate 62 g/ha, scale 0 to 10, 0 is no effect, 10 is complete control",8
same,Bedstraw plant response rating,"bedstraw; Rate 250 g/ha, scale of 0 to 10, 0 is no effect, 10 is complete control",8
same,"Plant response rating, Bedstraw","bedstraw; Rate 500 g/ha, scale of 0 to 10 where 0 is no effect and 10 is complete control",9
same,"Plant response rating, Rape",rape; [1],0
same,"Plant response rating, Rape",rape; [2],0
same,Rape plant response rating,rape; [3],3
same,"Plant response rating, Rape",rape; [4],7
same,Rape plant response rating,rape; [5],7
same,Rape plant response rating,rape; [6],9
same,"Plant response rating, Rape",rape; [7],10
same,"Plant response rating, Rice (0 to 10 scale, 0 is no effect, 10 is complete control)",rice; [8],0
same,"Rice plant response rating (0 to 10 scale, 0 is no effect, 10 is complete control)",rice; [9],0
same,Rice plant response rating,rice; [10],0
same,Rice plant response rating,rice; [11],0
same,"Plant response rating, Cocklebur",cocklebur; [1],0
same,"Plant response rating, Cocklebur",cocklebur; [2],2
same,Cocklebur plant response rating,cocklebur; [3],2
same,"Plant response rating, Cocklebur",cocklebur; [4],2
same,Cocklebur plant response rating,cocklebur; [5],0
same,Cocklebur plant response rating,cocklebur; [6],0
same,Cocklebur plant response rating (0 to 10 scale),"cocklebur; Preemergence, Rate 250 g/ha",2
same,"Plant response rating, Cocklebur",cocklebur; [7],8
same,"Plant response rating, Wheat",wheat; [1],0
same,"Plant response rating, Wheat",wheat; [2],0
same,Wheat plant response rating,wheat; [3],2
same,"Plant response rating, Wheat",wheat; [4],6
same,Wheat plant response rating,wheat; [5],0
same,Wheat plant response rating,wheat; [6],3
same,"Plant response rating, Wheat",wheat; [7],6
same,"Plant response rating, B. signalgrass",surinam grass; [1],1
same,"Plant response rating, B. signalgrass",surinam grass; [2],3
same,B. signalgrass plant response rating,surinam grass; [3],6
same,"Plant response rating, B. signalgrass",surinam grass; [4],8
same,B. signalgrass plant response rating,surinam grass; [5],7
same,B. signalgrass plant response rating,surinam grass; [6],8
same,"B. signalgrass plant response rating (0 to 10 scale, 0 is no effect, 10 is complete control)","surinam grass; Preemergence, Rate 250 g/ha",9
same,B. signalgrass plant response rating,surinam grass; [7],9
